Laboratory results: patent publication EP0028959A1, “5,8,13,13a-Tetrahydro-6H-dibenzo(a,g)quinolizine derivatives, process for their preparation and pharmaceutical compositions containing them” (U.R.P.H.A., priority 1979, dated 1981)
Read-outs that look alike come from different tables or passages of the source.

How the values were obtained:
aorte isolée du rat = assay: Inhibition of phenylephrine-induced contraction of isolated rat aorta; type: cell-based; settings: read-out: EFFET SUR L'AORTE DE RAT I50
From the text: (§1) L'inhibition des réponses contractiles maximales provoquées par la Phényléphrine ([…]) a été étudiée sur l'aorte isolée du rat préparée suivant la technique décrite par VALETTE,G. et BA MUOI, N. (Ann. Pharm. franc. 1962, 20, 557-582) et sur le segment proximal et le segment distal de l'artère caudale suivant la technique-décrite par WORCEL, M. (J. Pharmacol. Exp. Therm. 1978, 207, 210-330). Dans tous les cas, les dérivés STB se sont comportés comme de puissants antagonistes non compétitifs de la Phényléphrine. Leurs concentrations inhibitrices 50% (ID50) sont indiquées dans le tableau 2. Comme c'est le cas pour d'autres vasodilatateurs (comme l'Hydralazine), l'- artère caudale est plus sensible que l'aorte à l'effet inhibiteur des dérivés étudiés.

artère caudale proximale = assay: Inhibition of phenylephrine-induced contraction of isolated rat caudal artery, proximal segment; type: cell-based; settings: read-out: EFFET SUR L'ARTERE CAUDALE DE RAT I50 SEGMENT PROXIMAL
From the text: as §1

artère caudale distale = assay: Inhibition of phenylephrine-induced contraction of isolated rat caudal artery, distal segment; type: cell-based; settings: read-out: EFFET SUR L'ARTERE CAUDALE DE RAT I50 SEGMENT DISTAL
From the text: as §1

[1] = Acute toxicity, DL 50 in mice (Litchfield and Wilcoxon method); type: in vivo, souris; settings: mouse, in vivo, DL 50 and its upper and lower limits for p = 0,05
Method: (§2) La DL 50 a été déterminée chez la souris par la méthode de LITCHFIELD et WILCOXON (J. Pharmacol. 1949 96, 99-113). Les dérivés étudiés ont été administrés en solution aqueuse additionnée de 7% de diméthylformamide, gavage oesophagien de 0,4 ml/20g) à des souris mâles pesant de 20 à 25g.
(§3) C'est pourquoi, il a été comparé au STB 0 par injection intrapéritonéale (même solution et même volume injectés par voie orale).

[2] = tested on: effets hypertenseurs de l'adrénaline chez le chien; settings: Raymond Hamet 1952, 1953; cited from earlier work
[3] = tested on: oreillette gauche isolée de cobaye; assay: Contractile force of electrically stimulated isolated guinea pig left atrium; type: cell-based; settings: for effet sur la force contractile: result in words, comment on tableau 3
From the text: (§4) Les effets sur le rythme et sur la concentration cardiaques ont été respectivement mis en évidence sur l'oreillette droite battant spontanément et sur l'oreillette gauche stimulée électriquement, suivant la technique décrite par GROSSMANN A., FURCHGOTT R. (J. Pharmacol. Exp. Ther. 1964, 143, 107-119).

[4] = tested on: oreillette droite isolée de cobaye; assay: Frequency of spontaneously beating isolated guinea pig right atrium; type: cell-based; settings: for Inhibition % du rythme de base / Inhibition % du rythme maximal en présence d'isoprotérénol: mean of 3 experiments ± erreur type; for effet sur la fréquence: result in words, comment on tableau 3
From the text: as §4

muscle lisse = settings: Raymond Hamet 1952, 1953; cited from earlier work
patients hypertendus = settings: Faquet, Lisle et Combaz 1954; cited from earlier work
souris = assay: Acute toxicity, DL 50 in mice (Litchfield and Wilcoxon method); type: in vivo; settings: result in words, comment on tableau 4
Method: as §2, §3

[5] = tested on: rat anesthésié par l' "Inactine"; assay: Cardiac output (thermodilution), arterial pressure and peripheral vascular resistance in Inactine-anaesthetised rats; type: in vivo; parameters: Volume éjection systolique: unit not given here; settings: Après: 45 minutes after 15 mg.kg^-1 i.p., n=7, mean ± erreur type
Method: Les effets sur le débit cardiaque et la résistance vasculaire périphérique ont été mesurés chez le rat anesthésié par l' "Inactine" (70 mg.kg^-1), voie intrapéritonéale). Le débit a été mesuré par thermodilution suivant la technique décrite par HONDAS et al (Path. Biol. 1979, 17 1069-1078). La pression moyenne a été enregistrée à l'aide d'un cathéter placé dans l'artère fémorale du rat. Les mesures ont été faites avant et entre 45 et 60 minutes après l'administration intra-péritonéale des anti-hypertenseurs. Chaque chiffre expérimental représente la moyenne de trois mesures successives. Les résultats, donnés à titre d'exemple dans le tableau 1, ci-après,en ce qui concerne le STB 6, montrent que l'administration de l'anti-hypertenseur provoque une importante chute de pression artérielle imputable à une diminution marquée de la résistance vasculaire périphérique et sans variation significative du débit et du rythme cardiaques, ni du volume d'éjection systolique.

[6] = Solubility in the dosing solution (aqueous solution with 7% dimethylformamide); type: physicochemical; settings: reason why oral DL 50 could not be determined; result in words
Method: as §2, §3

[7] = contraction by phényléphrine 1.10^-5M, mean of at least 3 experiments ± erreur type
[8] = contraction by phényléphrine 1.10^-6M, mean of at least 3 experiments ± erreur type
[9] = contraction by phényléphrine 5.10^-6M, mean of at least 3 experiments ± erreur type
[10] = Concentration 5.10^-5 mole/l, stimulated at 2,5 Hz, mean of 3 experiments ± erreur type, read-out: Variation % de la force contractile de base
[11] = read-out: Variation % de la force contractile de base

Structure (SMILES) | IC50 (aorte isolée du rat; [7]) [µM] | IC50 (artère caudale proximale; [8]) [µM] | IC50 (artère caudale distale; [9]) [µM] | LD50 ([1]; po, per os, male mice 20 à 25g) [mg/kg] | LD50 ([1]; ip.) [mg/kg] | activation at 50 µM [3, 10] [%] | effet sur la force contractile [3] | Inhibition % du rythme de base ([4]; Concentration 5.10^-5 mole/l) [%] | Inhibition % du rythme maximal en présence d'isoprotérénol ([4]; Concentration 5.10^-5 mole/l) | effet sur la fréquence [4] | toxicité aiguë, comparison (souris) | IC50 (aorte isolée du rat) [µM] | IC50 (artère caudale proximale) [µM] | IC50 (artère caudale distale) [µM] | other results
c1ccc2c(c1)CC1c3ccccc3CCN1C2 (stereo not drawn) [STB0, 5,8,13,13a-tétrahydro-6H-dibenzo [a,g] quinolizine, reference compound] | 13 | 0.3 | 1.3 | 464 | 262 | -47 | déprime fortement | 46 ± 5 | 38 ± 6% | déprime fortement | – | – | – | – | effets hypertenseurs de l'adrénaline [2]: inverse les effets hypertenseurs de l'adrénaline; contraction du muscle lisse provoquée par l'ion K^+ (muscle lisse): inhibe la contraction du muscle lisse; action hypotensive (patients hypertendus): exerce une action hypotensive
Oc1ccc2c(c1)CCN1Cc3ccccc3CC21 (stereo not drawn) [STB4, 3-hydroxy-5,8,13,13a-tétrahydro-6H-dibenzo [a, g] quinolizine] | 26 | 1 | 1.9 | 464 | – | – | ne diminuent pas la force contractile | – | – | subsistent de façon moins marquée | – | – | – | – | Variation % de la force maximale en présence d'isoprotérénol ([3]; Concentration 45.10^-5 mole/l, stimulated at 2,5 Hz, mean of 3 experiments ± erreur type): 0%; activation at 450 µM ([3]; Concentration 45.10^-5 mole/l, stimulated at 2,5 Hz, mean of 3 experiments ± erreur type, read-out: Variation % de la force contractile de base): 0%; Inhibition % du rythme de base ([4]; Concentration 45.10^-5 mole/l): 13,8 ± 5,8%; Inhibition % du rythme maximal en présence d'isoprotérénol ([4]; Concentration 45.10^-5 mole/l): 28,7 ± 1,8%
COc1cc2c(cc1OC)CN1CCc3cc(O)ccc3C1C2 (stereo not drawn) [STB6, 3-hydroxy-10,11-diméthoxy-5,8,13,13a-tétrahydro-6H-dibenzo [a, g] quinolizine] | 59 | 1.1 | 2.1 | 275 | – | 32 | augmentent fortement la force contractile | 8 ± 5 | 21,6 ± 1,2% | subsistent de façon moins marquée | le plus toxique | – | – | – | Variation % de la force maximale en présence d'isoprotérénol ([3]; Concentration 5.10^-5 mole/l, stimulated at 2,5 Hz, mean of 3 experiments ± erreur type): 0%; Volume éjection systolique ([5]; n.s., Avant: 0,71 ± 0,04): 0,78 ± 0,035; débit cardiaque (DC) ([5]; n.s., Avant: 237,7 ± 12,9): 293,9 ±18,7 n.s. ml, mn.kg^-1; Rythme ([5]; n.s., Avant: 386 ± 11): 374 ± 12 n.s. systoles/mn; pression artérielle moyenne (PA) ([5]; p≤ 0,01, Avant: 150,2 ± 3,9): ‡‡‡ 89,1 ± 3,3 mmHg; résistance vasculaire périphérique totale (RVPt) ([5]; p≤ 0,01, Avant: 728,9 ± 29,2): ‡‡‡ 412,2 ± 17,8 dynes.mn.cm^-5.kg^-1
COc1cc2c(cc1OC)CN1CCc3cc(OC(=O)Cc4ccccc4)ccc3C1C2 (stereo not drawn) [STB52, 3-phénacétyloxy-10,11-diméthoxy-5,8,13,13a tétrahydro-6H-dibenzo [a, g] quinolizine] | – | – | – | 550 | – | – | augmentent fortement la force contractile | – | – | subsistent de façon moins marquée | – | 51 | 2.1 | 4.3 | activation at 5 µM [3, 11]: 90%; Inhibition % du rythme de base ([4]; Concentration 5.10^-6 mole/l): 14 ± 7%; Inhibition % du rythme maximal en présence d'isoprotérénol ([4]; Concentration 5.10^-6 mole/l): 17 ± 3%
O=C(Cc1ccccc1)Oc1ccc2c(c1)CCN1Cc3ccccc3CC21 (stereo not drawn) [STB69, 3-phénacétyloxy-5,8,13,13a-tétrahydro-6H-dibenzo-[a, g] quinolizine] | – | – | – | > 650 | 378 | – | pratiquement dépourvu d'action | 0 | 12,5 ± 2,7% | pratiquement dépourvu d'action | le moins toxique | 58 | 1.5 | 3.1 | solubilité [6]: solubilité insuffisante; activation at 50 µM [3, 11]: 12.6%
